According to patent publication US11254663B2 (BRISTOL-MYERS SQUIBB COMPANY, priority 2019, dated 2022):

Target: FXR (Homo sapiens (Human), UniProt Q96RI1)
Experiment: transient human FXR/Gal4-luciferase reporter assay
Format: cell-based
Settings: not given
Procedure, shortened: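 Compound exposure ran overnight at 37 °C and activity was measured as luminescence with Steady-Glo reagent. The cells were a HEK293 line stably expressing firefly luciferase under five Gal4 response elements. They were transiently transfected, one night beforehand, with a plasmid encoding Gal4 DNA-binding domain fused to the human FXR ligand-binding domain.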

Sequence of FXR (Q96RI1 262-486): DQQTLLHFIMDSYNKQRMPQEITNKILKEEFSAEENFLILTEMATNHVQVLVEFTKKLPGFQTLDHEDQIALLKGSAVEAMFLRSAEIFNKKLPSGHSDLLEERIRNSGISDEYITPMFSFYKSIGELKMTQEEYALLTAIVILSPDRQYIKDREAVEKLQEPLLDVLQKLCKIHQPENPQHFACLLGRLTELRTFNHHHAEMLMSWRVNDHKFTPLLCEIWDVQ

Point of comparison: `O=C(N(CC12CCC(c3nc(C(F)F)no3)(CC1)CC2)c1cccc(-c2ccc(OC(F)F)cc2)c1)C12CC(F)(C1)C2` [Example 468, N-(4′-(difluoromethoxy)-[1,1′-biphenyl]-3-yl)-N-((4-(3-(difluoromethyl)-1,2,4-oxadiazol-5-yl)bicyclo[2.2.2]octan-1-yl)methyl)-3-fluorobicyclo[1.1.1]pentane-1-carboxamide], EC50 0.184 µM. Against it:
- CC1(O)CC(C(=O)N(CC23CCC(c4noc(C(C)(C)C)n4)(CC2)CC3)c2cccc(-c3ccc(OC(F)F)cc3)c2)C1 [Example 517, (1S,3S)—N-((4-(5-(tert-butyl)-1,2,4-oxadiazol-3-yl)bicyclo[2.2.2]octan-1-yl)methyl)-N-(4′-(difluoromethoxy)-[1,1′-biphenyl]-3-yl)-3-hydroxy-3-methylcyclobutane-1-carboxamide] — within 1.5-fold, 0.255 µM
- O=C(N(CC12CCC(c3noc(C(F)F)n3)(CC1)CC2)c1cccc(-c2cnc(C3CC3)nc2)c1)C12CC(F)(C1)C2 [Example 463, N-(3-(2-cyclopropylpyrimidin-5-yl)phenyl)-N-((4-(5-(difluoromethyl)-1,2,4-oxadiazol-3-yl)bicyclo[2.2.2]octan-1-yl)methyl)-3-fluorobicyclo[1.1.1]pentane-1-carboxamide] — within 1.5-fold, 0.215 µM
- O=C(N(CC12CCC(c3noc(C(F)F)n3)(CC1)CC2)c1cccc(-c2ccc(OC(F)F)cc2)c1)C12CC(F)(C1)C2 [Example 465, N-(4′-(difluoromethoxy)-[1,1′-biphenyl]-3-yl)-N-((4-(5-(difluoromethyl)-1,2,4-oxadiazol-3-yl)bicyclo[2.2.2]octan-1-yl)methyl)-3-fluorobicyclo[1.1.1]pentane-1-carboxamide] — within 1.5-fold, 0.18 µM
- CCOc1ncc(-c2cccc(N(CC34CCC(c5nc(C(C)(C)C)no5)(CC3)CC4)C(=O)C34CC(N)(C3)C4)c2)cn1 [Example 506, 3-amino-N-((4-(3-(tert-butyl)-1,2,4-oxadiazol-5-yl)bicyclo[2.2.2]octan-1-yl)methyl)-N-(3-(2-ethoxypyrimidin-5-yl)phenyl)bicyclo[1.1.1]pentane-1-carboxamide] — 13-fold higher, 2.37 µM

Same assay, conditions: Gal4-hFXR fusion construct, HEK293 reporter cells; response relative to 8 μM GW-4064

Point of comparison: `Cc1cnc(-c2cccc(N(CC34CCC(c5nc(C6CC6)no5)(CC3)CC4)C(=O)C34CC(F)(C3)C4)c2)cn1` [Example 310, N-((4-(3-cyclopropyl-1,2,4-oxadiazol-5-yl)bicyclo[2.2.2]octan-1-yl)methyl)-3-fluoro-N-(3-(5-methylpyrazin-2-yl)phenyl)bicyclo[1.1.1]pentane-1-carboxamide], EC50 0.059 µM. Against it:
- CC(C)c1noc(C23CCC(CN(C(=O)C45CC(F)(C4)C5)c4cccc(-c5cnc(C6CC6)nc5)c4)(CC2)CC3)n1 [Example 385, N-(3-(2-cyclopropylpyrimidin-5-yl)phenyl)-3-fluoro-N-((4-(3-isopropyl-1,2,4-oxadiazol-5-yl)bicyclo[2.2.2]octan-1-yl)methyl)bicyclo[1.1.1]pentane-1-carboxamide] — 1.7-fold lower, 0.035 µM
- CC(C)c1nc(C23CCC(CN(C(=O)C45CC(F)(C4)C5)c4cccc(-c5cnc(C6CC6)nc5)c4)(CC2)CC3)no1 [Example 434, N-(3-(2-cyclopropylpyrimidin-5-yl)phenyl)-3-fluoro-N-((4-(5-isopropyl-1,2,4-oxadiazol-3-yl)bicyclo[2.2.2]octan-1-yl)methyl)bicyclo[1.1.1]pentane-1-carboxamide] — within 1.5-fold, 0.057 µM
- CC(C)c1nc(C23CCC(CN(C(=O)C45CC(F)(C4)C5)c4cccc(-c5ccc(NS(C)(=O)=O)cc5)c4)(CC2)CC3)no1 [Example 430, 3-fluoro-N-((4-(5-isopropyl-1,2,4-oxadiazol-3-yl)bicyclo[2.2.2]octan-1-yl)methyl)-N-(4′-(methylsulfonamido)-[1,1′-biphenyl]-3-yl)bicyclo[1.1.1]pentane-1-carboxamide] — within 1.5-fold, 0.04 µM
- N#Cc1cc2sccc2nc1-c1cccc(N(CC23CCC(c4nc(C5CC5)no4)(CC2)CC3)C(=O)C23CC(F)(C2)C3)c1 [Example 316, N-(3-(6-cyanothieno[3,2-b]pyridin-5-yl)phenyl)-N-((4-(3-cyclopropyl-1,2,4-oxadiazol-5-yl)bicyclo[2.2.2]octan-1-yl)methyl)-3-fluorobicyclo[1.1.1]pentane-1-carboxamide] — 2.3-fold higher, 0.138 µM
- Cc1nc2ccc(-c3cccc(N(CC45CCC(c6nnc(C7CC7)o6)(CC4)CC5)C(=O)C45CC(F)(C4)C5)c3)cc2s1 [Example 561, N-((4-(5-cyclopropyl-1,3,4-oxadiazol-2-yl)bicyclo[2.2.2]octan-1-yl)methyl)-3-fluoro-N-(3-(2-methylbenzo[d]thiazol-6-yl)phenyl)bicyclo[1.1.1]pentane-1-carboxamide] — within 1.5-fold, 0.058 µM
- CC(=O)Nc1cccc(-c2cccc(N(CC34CCC(c5nc(C6CC6)no5)(CC3)CC4)C(=O)C34CC(F)(C3)C4)c2)c1 [Example 254, N-(3′-acetamido-[1,1′-biphenyl]-3-yl)-N-((4-(3-cyclopropyl-1,2,4-oxadiazol-5-yl)bicyclo[2.2.2]octan-1-yl)methyl)-3-fluorobicyclo[1.1.1]pentane-1-carboxamide] — 4.1-fold higher, 0.241 µM
- CC(C)Oc1ccc(-c2cccc(N(CC34CCC(c5cc(C(C)(F)F)n(C)n5)(CC3)CC4)C(=O)OC(C)(C)C(F)(F)F)c2)cc1 [Example 658, 1,1,1-trifluoro-2-methylpropan-2-yl ((4-(5-(1,1-difluoroethyl)-1-methyl-1H-pyrazol-3-yl)bicyclo[2.2.2]octan-1-yl)methyl)(4′-isopropoxy-[1,1′-biphenyl]-3-yl)carbamate] — 16-fold higher, 0.917 µM
- O=C(N(CC12CCC(c3nc(C4CC4)no3)(CC1)CC2)c1cccc(-c2cc(Cl)cc(Cl)c2)c1)C12CC(F)(C1)C2 [Example 250, N-((4-(3-cyclopropyl-1,2,4-oxadiazol-5-yl)bicyclo[2.2.2]octan-1-yl)methyl)-N-(3′,5′-dichloro-[1,1′-biphenyl]-3-yl)-3-fluorobicyclo[1.1.1]pentane-1-carboxamide] — 13-fold higher, 0.778 µM
- COc1ccc(-c2cccc(N(CC34CCC(c5nc(C6CC6)no5)(CC3)CC4)C(=O)C34CC(F)(C3)C4)c2)cc1C#N [Example 296, N-(3′-cyano-4′-methoxy-[1,1′-biphenyl]-3-yl)-N-((4-(3-cyclopropyl-1,2,4-oxadiazol-5-yl)bicyclo[2.2.2]octan-1-yl)methyl)-3-fluorobicyclo[1.1.1]pentane-1-carboxamide] — 5-fold higher, 0.294 µM
- CCOc1ccc(-c2cccc(N(CC34CCC(c5noc(C6(C)CC6)n5)(CC3)CC4)C(=O)C34CC(F)(C3)C4)c2)cn1 [Example 401, N-(3-(6-ethoxypyridin-3-yl)phenyl)-3-fluoro-N-((4-(5-(1-methylcyclopropyl)-1,2,4-oxadiazol-3-yl)bicyclo[2.2.2]octan-1-yl)methyl)bicyclo[1.1.1]pentane-1-carboxamide] — within 1.5-fold, 0.042 µM
- Cc1nc2ccc(-c3ccnc(N(CC45CCC(c6nc(C(C)(C)C)no6)(CC4)CC5)C(=O)C45CC(F)(C4)C5)c3)cc2s1 [Example 551, N-((4-(3-(tert-butyl)-1,2,4-oxadiazol-5-yl)bicyclo[2.2.2]octan-1-yl)methyl)-3-fluoro-N-(4-(2-methylbenzo[d]thiazol-6-yl)pyridin-2-yl)bicyclo[1.1.1]pentane-1-carboxamide] — within 1.5-fold, 0.055 µM
- O=C(N(CC12CCC(c3nc(C4CC4)no3)(CC1)CC2)c1cccc(-c2ccc(F)cn2)c1)C12CC(F)(C1)C2 [Example 287, N-((4-(3-cyclopropyl-1,2,4-oxadiazol-5-yl)bicyclo[2.2.2]octan-1-yl)methyl)-3-fluoro-N-(3-(5-fluoropyridin-2-yl)phenyl)bicyclo[1.1.1]pentane-1-carboxamide] — 5.4-fold higher, 0.316 µM
- CC(C)Oc1ccc(-c2cc(N(CC34CCC(c5noc(C6(F)CC6)n5)(CC3)CC4)C(=O)[C@H]3C[C@](O)(C(F)(F)F)C3)ccc2F)cc1 [Example 581, (cis)-N-(6-fluoro-4′-isopropoxy-[1,1′-biphenyl]-3-yl)-N-((4-(5-(1-fluorocyclopropyl)-1,2,4-oxadiazol-3-yl)bicyclo[2.2.2]octan-1-yl)methyl)-3-hydroxy-3-(trifluoromethyl)cyclobutane-1-carboxamide] — within 1.5-fold, 0.074 µM
- COc1nccc(-c2cccc(N(CC34CCC(c5nc(C6CC6)no5)(CC3)CC4)C(=O)C3CC(F)(F)C3)c2)n1 [Example 243, N-((4-(3-cyclopropyl-1,2,4-oxadiazol-5-yl)bicyclo[2.2.2]octan-1-yl)methyl)-3,3-difluoro-N-(3-(2-methoxypyrimidin-4-yl)phenyl)cyclobutane-1-carboxamide] — 7.3-fold higher, 0.428 µM
- COc1ccc(-c2cccc(N(CC34CCC(c5nc(C6CC6)no5)(CC3)CC4)C(=O)C34CC(F)(C3)C4)c2)cc1 [Example 282, N-((4-(3-cyclopropyl-1,2,4-oxadiazol-5-yl)bicyclo[2.2.2]octan-1-yl)methyl)-3-fluoro-N-(4′-methoxy-[1,1′-biphenyl]-3-yl)bicyclo[1.1.1]pentane-1-carboxamide] — 3.1-fold lower, 0.019 µM
- CC(C)(C)c1nc(C23CCC(CN(C(=O)C45CC(F)(C4)C5)c4cncc(-c5ncc(OC(F)F)cn5)c4)(CC2)CC3)no1 [Example 485, N-((4-(5-(tert-butyl)-1,2,4-oxadiazol-3-yl)bicyclo[2.2.2]octan-1-yl)methyl)-N-(5-(5-(difluoromethoxy)pyrimidin-2-yl)pyridin-3-yl)-3-fluorobicyclo[1.1.1]pentane-1-carboxamide] — within 1.5-fold, 0.041 µM
- CC(C)(O)Cn1cc(-c2cc(N(CC34CCC(c5noc(C(C)(F)F)n5)(CC3)CC4)C(=O)NC34CC(C3)C4)ccc2F)cn1 [Example 633, 3-(bicyclo[1.1.1]pentan-1-yl)-1-((4-(5-(1,1-difluoroethyl)-1,2,4-oxadiazol-3-yl)bicyclo[2.2.2]octan-1-yl)methyl)-1-(4-fluoro-3-(1-(2-hydroxy-2-methylpropyl)-1H-pyrazol-4-yl)phenyl)urea] — 1.8-fold lower, 0.032 µM
